Like-named read-outs stand apart in the source and are kept apart here.
Legend:
[1] = test system: NCI-H292 lung cancer cells; experiment: FDA drug screening, complete media vs cholesterol-free media without statin (TABLE 1); type: cell-based, human
[2] = test system: NCI-H292 lung cancer cells; experiment: FDA drug screening, complete media vs cholesterol-free media with simvastatin (TABLE 2); type: cell-based, human
[3] = Complete minus Cholesterol-free, greater than 0 enhanced anti-cancer activity, about 0 neutral, below 0 antagonists
[4] = NCI-H292 cells in cholesterol-free media without statin
[5] = NCI-H292 cells in complete media
[6] = NCI-H292 cells, FDA drug library screen, cholesterol-free media with simvastatin 0.04 μM
[7] = NCI-H292 cells, FDA drug library screen, complete media
[8] = complete media minus cholesterol-free media + simvastatin, >0 enhanced anti-cancer activity, about 0 neutral, <0 antagonist
[9] = NCI-H292 cells, cholesterol-free media without statin, FDA drug library screen
[10] = NCI-H292 cells, complete media, FDA drug library screen
[11] = complete vs cholesterol-free media, >0 enhanced anti-cancer activity, about 0 neutral, <0 antagonist
[12] = complete media vs cholesterol-free media + simvastatin (0.04 μM), >0 enhanced anti-cancer activity, about 0 neutral, <0 antagonist
[13] = NCI-H292 cells, cholesterol-free media without statin
[14] = complete vs cholesterol-free media, greater than 0 enhanced anti-cancer activity, about 0 neutral, below 0 antagonists
[15] = NCI-H292 cells, cholesterol-free media with simvastatin 0.04 μM, FDA drug library screen (TABLE 2)
[16] = NCI-H292 cells, complete media, FDA drug library screen (TABLE 2)
[17] = complete media minus cholesterol-free media + simvastatin (0.04 μM), >0 enhanced anti-cancer activity, about 0 neutral, <0 antagonist
[18] = Complete minus Cholesterol-free, […]
[19] = NCI-H292 cells, FDA drug library screen, cholesterol-free media without statin
[20] = NCI-H292 cells, drug in cholesterol-free media with simvastatin 0.04 μM
[21] = NCI-H292 cells, drug in complete media

Work on `O=C[C@H](O)[C@@H](O)[C@H](O)CO` (racemic) [DL-Xylose] yielded a Difference [1, 3] of −0.70, a Cholesterol-free [1, 4] of 1.5 and a Complete [1, 5] of 0.7993. For the same molecule, the “Cholesterol-free media + simvastatin (0.04 μM)” value [2, 6] was 0.8322, the “Complete Media” value [2, 7] was 1.203 and the Difference [2, 8] was 0.37.

Molecule `Cc1c(C)c2c(c(C)c1O)CCC(C)(CCCC(C)CCCC(C)CCCC(C)C)O2` (racemic) [DL-alpha-Tocopherol] has a Cholesterol-free [1, 9] of 0.7949, a Complete [1, 10] of 1.459 and a Difference [1, 11] of 0.66. The “Cholesterol-free media + simvastatin (0.04 μM)” value [2, 6] was 1.155, the “Complete Media” value [2, 7] was 1.072 and the Difference [2, 12] was −0.08.

With `C=CC(=O)N1CCC[C@@H](n2nc(-c3ccc(Oc4ccccc4)cc3)c3c(N)ncnc32)C1` (racemic) [Ibrutinib (Racemate)] the Cholesterol-free [1, 13] was 1.242, the Complete ([1]; NCI-H292 cells, complete media) was 0.9233 and the Difference [1, 14] was −0.32. For the same molecule, the “Cholesterol-free media + simvastatin (0.04 μM)” value [2, 15] was 0.346, the “Complete Media” value [2, 16] was 0.2858 and the Difference [2, 17] was −0.06.

For `CN1[C@H]2C[C@H](OC(=O)[C@H](CO)c3ccccc3)C[C@@H]1[C@@H](O)C2` (racemic) [Racanisodamine], the Difference [1, 18] was −0.15, the Cholesterol-free [1, 19] was 1.184 and the Complete [1, 7] was 1.034. The “Cholesterol-free media + simvastatin (0.04 μM)” value [2, 15] was 0.9483, the “Complete Media” value [2, 16] was 0.9207 and the Difference ([2]; complete media minus cholesterol-free media + simvastatin (0.04 μM), […]) was −0.03.

Molecule `COC1=CC(=O)OC(/C=C/c2ccccc2)C1` (single isomer, unassigned; (+)) [(+)-Kavain] has a Difference [1, 18] of −0.08, a Cholesterol-free [1, 19] of 1.138 and a Complete [1, 7] of 1.054. The “Cholesterol-free media + simvastatin (0.04 μM)” value ([2]; NCI-H292 cells, cholesterol-free media with simvastatin 0.04 μM, […]) was 1.009, the “Complete Media” value ([2]; NCI-H292 cells, complete media, […]) was 1.093 and the Difference ([2]; complete media minus cholesterol-free media + simvastatin, […]) was 0.08.

Molecule `CC(C)(C)NCC(O)COc1ccccc1C1CCCC1` (single isomer, unassigned; (+)) [(+)-Penbutolol] has a Cholesterol-free [1, 13] of 1.349, a Complete ([1]; NCI-H292 cells, complete media) of 1.014 and a Difference [1, 14] of −0.33. The “Cholesterol-free media + simvastatin (0.04 μM)” value [2, 20] was 1.153, the “Complete Media” value [2, 21] was 0.9518 and the Difference [2, 12] was −0.20.

`CC1CCC(C(C)C)C(O)C1` (single isomer, unassigned; (-)) [(−)-Menthol] showed a Cholesterol-free [1, 13] of 1.434, a Complete ([1]; NCI-H292 cells, complete media) of 1.115 and a Difference [1, 14] of −0.32. The “Cholesterol-free media + simvastatin (0.04 μM)” value ([2]; NCI-H292 cells, FDA library drug in cholesterol-free media with simvastatin 0.04 μM) was 1.223, the “Complete Media” value ([2]; NCI-H292 cells, FDA library drug in complete media) was 0.8866 and the Difference [2, 12] was −0.34.

Work on `CC(=C(CCO)SSCC1CCCO1)N(C=O)Cc1cnc(C)nc1N` (stereo in doubt) [Fursultiamine] yielded a Cholesterol-free [1] of 1.191, a Complete [1] of 1.162 and a Difference [1] of −0.03. For the same molecule, the “Cholesterol-free media + simvastatin (0.04 μM)” value [2] was 1.842, the “Complete Media” value [2] was 1.268 and the Difference [2] was −0.57.

For `CC(=C(CCOC(=O)C(C)C)SSC(CCOC(=O)C(C)C)=C(C)N(C=O)Cc1cnc(C)nc1N)N(C=O)Cc1cnc(C)nc1N` (stereo in doubt) [Sulbutiamine], the Cholesterol-free [1, 9] was 1.257, the Complete [1, 10] was 1.438 and the Difference [1, 11] was 0.18. For the same molecule, the “Cholesterol-free media + simvastatin (0.04 μM)” value ([2]; NCI-H292 cells, cholesterol-free media with simvastatin 0.04 μM, cell growth value in FDA drug screen) was 0.8359, the “Complete Media” value ([2]; NCI-H292 cells, complete media, cell growth value in FDA drug screen) was 0.9183 and the Difference [2, 8] was 0.08.

`O=C(O)c1ccccc1OP(=O)(O)O` [2-(Phosphonooxy)benzoic acid] showed a Difference [1, 3] of −0.51, a Cholesterol-free [1, 4] of 1.515 and a Complete [1, 5] of 1.005. For the same molecule, the “Cholesterol-free media + simvastatin (0.04 μM)” value [2, 20] was 1.147, the “Complete Media” value [2, 21] was 0.9779 and the Difference [2, 12] was −0.17.

Work on `CCOc1ccccc1C(N)=O` [2-Ethoxybenzamide] yielded a Difference ([1]; Complete minus Cholesterol-free, >0 enhanced anti-cancer activity, about 0 neutral, <0 antagonist) of −0.07, a Cholesterol-free [1, 9] of 1.024 and a Complete [1, 10] of 0.9559. For the same molecule, the “Cholesterol-free media + simvastatin (0.04 μM)” value [2, 6] was 1.119, the “Complete Media” value [2, 7] was 0.9754 and the Difference [2, 12] was −0.14.

`NCc1ccc(C(=O)O)cc1` [4-(Aminomethyl)benzoic acid] showed a Difference [1, 3] of −0.68, a Cholesterol-free [1, 4] of 1.961 and a Complete [1, 5] of 1.286. For the same molecule, the “Cholesterol-free media + simvastatin (0.04 μM)” value [2, 15] was 1.68, the “Complete Media” value [2, 16] was 1.637 and the Difference [2, 17] was −0.04.

In the case of `Nc1ccc(C(=O)O)c(O)c1` [4-Aminosalicylic acid], the Difference [1, 18] is reported as −0.16, the Cholesterol-free [1, 19] is reported as 1.094 and the Complete [1, 7] is reported as 0.9375. The “Cholesterol-free media + simvastatin (0.04 μM)” value [2, 6] was 1.199, the “Complete Media” value [2, 7] was 1.112 and the Difference ([2]; complete media vs cholesterol-free media + simvastatin (0.04 μM), […]) was −0.09.

Source: patent publication US20250144067A1, “PERSONALIZED STARVATION THERAPY FOR CANCER” (Faeth Therapeutics, Inc., priority 2021, published 2025)
